From patent publication US20260232666A1, “COMPOSITIONS AND METHODS FOR INHIBITION OF RAS” (TheRas, Inc., priority 2023, published 2026)

Target: T1, GppNHp-loaded KRAS4b (amino acids 1-169) G12C/C118S protein (Homo sapiens, UniProt P01116, C118S/G12C)
T1 construct: KRAS4b (amino acids 1-169) G12C/C118S protein; made in house
Assay: Covalent cysteine 12 modification by MALDI-TOF MS, GppNHp-loaded KRAS G12C
Type: binding
Conditions: 15 minutes reaction time point
How it was run: (§1)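 Percent modification comes from MALDI-TOF peak heights: the compound-adduct peak divided by the sum of the remaining-protein and adduct peaks. Reactions contained 1 μM protein and compound at a 1:2.5 ratio, in pH 7.3 HEPES buffer with NaCl and MgCl2, held 15 min at room temperature.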

Structure (SMILES)	GppNHp-KRAS G12C percent of modification
C=CC(=O)N1CC[C@@H](N(C)c2nc(OC[C@@H]3CCCN3C)nc3c(F)c(-c4ccc(F)c5sc(N)c(C#N)c45)c(Cl)cc23)[C@@H]1C [Compound 83]	A (percent of modification ≥70%)
C=CC(=O)N1CC[C@@H](N(C)c2nc(OC[C@@H]3CCCN3CC)nc3c(F)c(-c4ccc(F)c5sc(N)c(C#N)c45)c(Cl)cc23)[C@@H]1C [Compound 84]	A (percent of modification ≥70%)
C=CC(=O)N1CC[C@@H](N(CC)c2nc(OC[C@@]34CCCN3C[C@H](F)C4)nc3c(F)c(-c4ccc(F)c5sc(N)c(C#N)c45)c(C(F)(F)F)cc23)[C@@H]1C [Compound 86]	A (percent of modification ≥70%)
C=CC(=O)N1CC[C@@H](N(C)c2nc(OCC3(CN4CCOCC4)CC3)nc3c(F)c(-c4ccc(F)c5sc(N)c(C#N)c45)c(C(F)(F)F)cc23)[C@H]1C [Compound 87]	C (10%≤percent of modification <50%)
C=CC(=O)N1CC[C@@H](N(C)c2nc(OC[C@@]34CCCN3C[C@H](F)C4)nc3c(F)c(-c4ccc(F)c5oc(N)c(C#N)c45)c(C(F)(F)F)cc23)[C@H]1C [Compound 90]	B (50≤percent of modification <70%)
C=CC(=O)N1CC[C@@H](N(C)c2nc(OC[C@@]34CCCN3C[C@H](F)C4)nc3c(F)c(-c4nc(N)cc(C)c4C(F)(F)F)c(C(F)(F)F)cc23)[C@@H]1C [Compound 91]	A (percent of modification ≥70%)
C=CC(=O)N1CC[C@@H](N(C)c2nc(OC[C@@H]3CC4(CC4)CN3CC)nc3c(F)c(-c4ccc(F)c5sc(N)c(C#N)c45)c(Cl)cc23)[C@@H]1C [Compound 92]	A (percent of modification ≥70%)
C=CC(=O)N1CC[C@@H](N(C)c2nc(OC[C@@H]3CC4(CC4)CN3CC)nc3c(F)c(-c4ccc(F)c5sc(N)c(C#N)c45)c(C(F)(F)F)cc23)[C@@H]1C [Compound 95]	A (percent of modification ≥70%)
C=CC(=O)N1CC[C@@H](N(C)c2nc(OC[C@@H]3CC4(CC4)CN3CC)nc3c(F)c(-c4ccc(F)c5sc(N)c(C#N)c45)c(Cl)cc23)[C@H]1C [Compound 97]	A (percent of modification ≥70%)
C=CC(=O)N1CC[C@@H](N(C)c2nc(OC[C@@H]3C[C@@H](F)CN3CC)nc3c(F)c(-c4ccc(F)c5sc(N)c(C#N)c45)c(Cl)cc23)[C@H]1C [Compound 98]	D (percent of modification <10%)
C=CC(=O)N1CC[C@@H](N(C)c2nc(OC[C@@H]3C[C@@H](OC)CN3CC)nc3c(F)c(-c4ccc(F)c5sc(N)c(C#N)c45)c(Cl)cc23)[C@H]1C [Compound 99]	A (percent of modification ≥70%)
C=CC(=O)N1CC[C@@H](N(C)c2nc(OC[C@@H]3C[C@@H](OC)CN3CC)nc3c(F)c(-c4ccc(F)c5sc(N)c(C#N)c45)c(Cl)cc23)[C@@H]1C [Compound 100]	A (percent of modification ≥70%)

Target: T2, GTP-loaded KRAS4b (amino acids 1-169) G12C/C118S protein (Homo sapiens, UniProt P01116, C118S/G12C)
T2 construct: KRAS4b (amino acids 1-169) G12C/C118S protein; made in house
Assay: Covalent cysteine 12 modification by MALDI-TOF MS, GTP-loaded KRAS G12C
Type: binding
Conditions: 15 minutes reaction time point
How it was run: as §1

Structure (SMILES)	GTP-KRAS G12C percent of modification
C=CC(=O)N1CC[C@@H](N(C)c2nc(OC[C@@H]3CCCN3C)nc3c(F)c(-c4ccc(F)c5sc(N)c(C#N)c45)c(Cl)cc23)[C@@H]1C [Compound 83]	B (50≤percent of modification <70%)
C=CC(=O)N1CC[C@@H](N(C)c2nc(OC[C@@H]3CCCN3CC)nc3c(F)c(-c4ccc(F)c5sc(N)c(C#N)c45)c(Cl)cc23)[C@@H]1C [Compound 84]	B (50≤percent of modification <70%)
C=CC(=O)N1CC[C@@H](N(CC)c2nc(OC[C@@]34CCCN3C[C@H](F)C4)nc3c(F)c(-c4ccc(F)c5sc(N)c(C#N)c45)c(C(F)(F)F)cc23)[C@@H]1C [Compound 86]	B (50≤percent of modification <70%)
C=CC(=O)N1CC[C@@H](N(C)c2nc(OCC3(CN4CCOCC4)CC3)nc3c(F)c(-c4ccc(F)c5sc(N)c(C#N)c45)c(C(F)(F)F)cc23)[C@H]1C [Compound 87]	C (10%≤percent of modification <50%)
C=CC(=O)N1CC[C@@H](N(C)c2nc(OC[C@@]34CCCN3C[C@H](F)C4)nc3c(F)c(-c4ccc(F)c5oc(N)c(C#N)c45)c(C(F)(F)F)cc23)[C@H]1C [Compound 90]	C (10%≤percent of modification <50%)
C=CC(=O)N1CC[C@@H](N(C)c2nc(OC[C@@]34CCCN3C[C@H](F)C4)nc3c(F)c(-c4nc(N)cc(C)c4C(F)(F)F)c(C(F)(F)F)cc23)[C@@H]1C [Compound 91]	C (10%≤percent of modification <50%)
C=CC(=O)N1CC[C@@H](N(C)c2nc(OC[C@@H]3CC4(CC4)CN3CC)nc3c(F)c(-c4ccc(F)c5sc(N)c(C#N)c45)c(Cl)cc23)[C@@H]1C [Compound 92]	B (50≤percent of modification <70%)
C=CC(=O)N1CC[C@@H](N(C)c2nc(OC[C@@H]3CC4(CC4)CN3CC)nc3c(F)c(-c4ccc(F)c5sc(N)c(C#N)c45)c(C(F)(F)F)cc23)[C@@H]1C [Compound 95]	B (50≤percent of modification <70%)
C=CC(=O)N1CC[C@@H](N(C)c2nc(OC[C@@H]3CC4(CC4)CN3CC)nc3c(F)c(-c4ccc(F)c5sc(N)c(C#N)c45)c(Cl)cc23)[C@H]1C [Compound 97]	A (percent of modification ≥70%)
C=CC(=O)N1CC[C@@H](N(C)c2nc(OC[C@@H]3C[C@@H](F)CN3CC)nc3c(F)c(-c4ccc(F)c5sc(N)c(C#N)c45)c(Cl)cc23)[C@H]1C [Compound 98]	D (percent of modification <10%)
C=CC(=O)N1CC[C@@H](N(C)c2nc(OC[C@@H]3C[C@@H](OC)CN3CC)nc3c(F)c(-c4ccc(F)c5sc(N)c(C#N)c45)c(Cl)cc23)[C@H]1C [Compound 99]	A (percent of modification ≥70%)
C=CC(=O)N1CC[C@@H](N(C)c2nc(OC[C@@H]3C[C@@H](OC)CN3CC)nc3c(F)c(-c4ccc(F)c5sc(N)c(C#N)c45)c(Cl)cc23)[C@@H]1C [Compound 100]	C (10%≤percent of modification <50%)

Target: T3, Avi-KRAS G12C (1-169) GppNHp/RAF1 RBD-3×FLAG (52-151) (Homo sapiens, UniProt P01116, G12C)
T3 construct: Avi-KRAS G12C (1-169) GppNHp; Avi (N)
Assay: Raf1 RBD-KRAS G12C-GppNHp disruption assay (protein:protein interaction HTRF)
Type: biochemical
Conditions: not given
How it was run: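 HTRF measuring RAF1 RBD binding to GppNHp-loaded KRAS G12C (50 nM) in Tris pH 7.5, 100 mM NaCl, 5 mM MgCl2, 10% DMSO. Compound, KRAS, RBD and detection reagents each added sequentially with 1 h room-temperature incubations; 10-point titration; excitation 320 nm, emission 615 nm; activity as % of DMSO; IC50 derived.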

Structure (SMILES)	IC50
C=CC(=O)N1CC[C@@H](N(C)c2nc(OC[C@@H]3CCCN3C)nc3c(F)c(-c4ccc(F)c5sc(N)c(C#N)c45)c(Cl)cc23)[C@@H]1C [Compound 83]	< 500 nM
C=CC(=O)N1CC[C@@H](N(C)c2nc(OC[C@@H]3CCCN3CC)nc3c(F)c(-c4ccc(F)c5sc(N)c(C#N)c45)c(Cl)cc23)[C@@H]1C [Compound 84]	< 500 nM
C=CC(=O)N1CC[C@@H](N(CC)c2nc(OC[C@@]34CCCN3C[C@H](F)C4)nc3c(F)c(-c4ccc(F)c5sc(N)c(C#N)c45)c(C(F)(F)F)cc23)[C@@H]1C [Compound 86]	< 500 nM
C=CC(=O)N1CC[C@@H](N(C)c2nc(OCC3(CN4CCOCC4)CC3)nc3c(F)c(-c4ccc(F)c5sc(N)c(C#N)c45)c(C(F)(F)F)cc23)[C@H]1C [Compound 87]	< 500 nM
C=CC(=O)N1CC[C@@H](N(C)c2nc(OC[C@@]34CCCN3C[C@H](F)C4)nc3c(F)c(-c4ccc(F)c5oc(N)c(C#N)c45)c(C(F)(F)F)cc23)[C@H]1C [Compound 90]	< 500 nM
C=CC(=O)N1CC[C@@H](N(C)c2nc(OC[C@@]34CCCN3C[C@H](F)C4)nc3c(F)c(-c4nc(N)cc(C)c4C(F)(F)F)c(C(F)(F)F)cc23)[C@@H]1C [Compound 91]	< 500 nM
C=CC(=O)N1CC[C@@H](N(C)c2nc(OC[C@@H]3CC4(CC4)CN3CC)nc3c(F)c(-c4ccc(F)c5sc(N)c(C#N)c45)c(Cl)cc23)[C@@H]1C [Compound 92]	< 500 nM
C=CC(=O)N1CC[C@@H](N(C)c2nc(OC[C@@H]3CC4(CC4)CN3CC)nc3c(F)c(-c4ccc(F)c5sc(N)c(C#N)c45)c(C(F)(F)F)cc23)[C@@H]1C [Compound 95]	< 500 nM
C=CC(=O)N1CC[C@@H](N(C)c2nc(OC[C@@H]3CC4(CC4)CN3CC)nc3c(F)c(-c4ccc(F)c5sc(N)c(C#N)c45)c(Cl)cc23)[C@H]1C [Compound 97]	< 500 nM
C=CC(=O)N1CC[C@@H](N(C)c2nc(OC[C@@H]3C[C@@H](F)CN3CC)nc3c(F)c(-c4ccc(F)c5sc(N)c(C#N)c45)c(Cl)cc23)[C@H]1C [Compound 98]	500 to 5000 nM
C=CC(=O)N1CC[C@@H](N(C)c2nc(OC[C@@H]3C[C@@H](OC)CN3CC)nc3c(F)c(-c4ccc(F)c5sc(N)c(C#N)c45)c(Cl)cc23)[C@H]1C [Compound 99]	< 500 nM
C=CC(=O)N1CC[C@@H](N(C)c2nc(OC[C@@H]3C[C@@H](OC)CN3CC)nc3c(F)c(-c4ccc(F)c5sc(N)c(C#N)c45)c(Cl)cc23)[C@@H]1C [Compound 100]	< 500 nM
